Our source for the AC50 values is patent publication US20250262201A1, “COMPOUNDS AND METHODS USEFUL FOR STABILIZING PHENYLALANINE HYDROXYLASE MUTATIONS” (Agios Pharmaceuticals, Inc., priority 2022, published 2025).

Usually AC50 stands for the concentration at which the activity in the assay is half-maximal.

The test has as its target T1, human PAH with the R408W mutation (Homo sapiens, UniProt P00439, R408W).
T1 construct: expressed in transfected cells
T1 sequence (P00439 1-452 R408W): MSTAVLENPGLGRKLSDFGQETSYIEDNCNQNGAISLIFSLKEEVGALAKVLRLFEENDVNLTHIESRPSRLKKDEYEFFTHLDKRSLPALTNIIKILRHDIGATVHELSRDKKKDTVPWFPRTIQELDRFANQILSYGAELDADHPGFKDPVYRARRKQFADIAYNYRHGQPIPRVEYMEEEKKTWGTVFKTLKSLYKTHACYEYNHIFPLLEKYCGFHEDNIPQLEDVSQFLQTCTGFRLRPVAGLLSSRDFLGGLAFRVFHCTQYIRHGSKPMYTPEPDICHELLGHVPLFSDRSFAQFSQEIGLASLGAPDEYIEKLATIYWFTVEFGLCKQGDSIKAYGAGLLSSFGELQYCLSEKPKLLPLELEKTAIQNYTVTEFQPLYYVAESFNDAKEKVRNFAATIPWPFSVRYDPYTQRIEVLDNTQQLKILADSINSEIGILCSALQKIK
The test can be described thus: Cell Based Phenylalanine Flux Assay. The settings on record: A375 cells expressing human R408W PAH; 24 hrs compound incubation; 13C-Tyrosine by LC-MS; average where tested multiple times; read-out: AC50.
`O=C(c1nnc(-c2cnn(C(F)F)c2)o1)N1CCc2[nH]cnc2[C@H]1c1cc2ccccc2cn1` [Example 440, (R)-(5-(1-(difluoromethyl)-1H-pyrazol-4-yl)-1,3,4-oxadiazol-2-yl)(4-(isoquinolin-3-yl)-6,7-dihydro-1H-imidazo[4,5-c]pyridin-5(4H)-yl)methanone]: the half-maximal activity concentration (AC50) was < 500 nM.

Consider `Cn1ccc(-c2nnc(C(=O)N3CCc4[nH]cnc4[C@H]3c3cc4ccccc4cn3)o2)n1` [Example 441, (R)-(4-(isoquinolin-3-yl)-6,7-dihydro-1H-imidazo[4,5-c]pyridin-5(4H)-yl)(5-(1-methyl-1H-pyrazol-3-yl)-1,3,4-oxadiazol-2-yl)methanone], for which the half-maximal activity concentration (AC50) is < 500 nM.

Consider `O=C(c1nnc(-c2ccc(C(F)(F)F)cn2)o1)N1CCc2[nH]cnc2[C@H]1c1cc2ccccc2cn1` [Example 442, (R)-(4-(isoquinolin-3-yl)-6,7-dihydro-1H-imidazo[4,5-c]pyridin-5(4H)-yl)(5-(5-(trifluoromethyl)pyridin-2-yl)-1,3,4-oxadiazol-2-yl)methanone], for which the concentration at half-maximal activity (AC50) is < 500 nM.

Take `Cn1cnc(-c2nnc(C(=O)N3CCc4[nH]cnc4[C@H]3c3cc4ccccc4cn3)o2)c1` [Example 443, (R)-(4-(isoquinolin-3-yl)-6,7-dihydro-1H-imidazo[4,5-c]pyridin-5(4H)-yl)(5-(1-methyl-1H-imidazol-4-yl)-1,3,4-oxadiazol-2-yl)methanone]: the concentration at half-maximal activity (AC50) is < 500 nM.

For `Cn1cncc1-c1nnc(C(=O)N2CCc3[nH]cnc3[C@H]2c2cc3ccccc3cn2)o1` [Example 444, (R)-(4-(isoquinolin-3-yl)-6,7-dihydro-1H-imidazo[4,5-c]pyridin-5(4H)-yl)(5-(1-methyl-1H-imidazol-5-yl)-1,3,4-oxadiazol-2-yl)methanone], the concentration at half-maximal activity (AC50) lay in the range of 500 to 1000 nM.

Turning to `O=C(c1nnc(-c2cccnc2)o1)N1CCc2[nH]cnc2[C@H]1c1cc2ccccc2cn1` [Example 445, (R)-(4-(isoquinolin-3-yl)-6,7-dihydro-1H-imidazo[4,5-c]pyridin-5(4H)-yl)(5-(pyridin-3-yl)-1,3,4-oxadiazol-2-yl)methanone], the AC50 is < 500 nM.

As to `Cc1c(-c2nnc(C(=O)N3CCc4[nH]cnc4[C@H]3c3cc4ccccc4cn3)o2)cnn1C` [Example 446, (R)-(5-(1,5-dimethyl-1H-pyrazol-4-yl)-1,3,4-oxadiazol-2-yl)(4-(isoquinolin-3-yl)-6,7-dihydro-1H-imidazo[4,5-c]pyridin-5(4H)-yl)methanone], the half-maximal activity concentration (AC50) is < 500 nM.

As to `Cn1nccc1-c1nnc(C(=O)N2CCc3[nH]cnc3[C@H]2c2cc3ccccc3cn2)o1` [Example 447, (R)-(4-(isoquinolin-3-yl)-6,7-dihydro-1H-imidazo[4,5-c]pyridin-5(4H)-yl)(5-(1-methyl-1H-pyrazol-5-yl)-1,3,4-oxadiazol-2-yl)methanone], the AC50 is < 500 nM.

For the compound `O=C(c1nnc(-c2ccncc2)o1)N1CCc2[nH]cnc2[C@H]1c1cc2ccccc2cn1` [Example 448, (R)-(4-(isoquinolin-3-yl)-6,7-dihydro-1H-imidazo[4,5-c]pyridin-5(4H)-yl)(5-(pyridin-4-yl)-1,3,4-oxadiazol-2-yl)methanone], the concentration at half-maximal activity (AC50) is < 500 nM.

With `O=C(c1nnc(-c2cnn(C3CCC3)c2)o1)N1CCc2[nH]cnc2[C@H]1c1cc2ccccc2cn1` [Example 449, (R)-(5-(1-cyclobutyl-1H-pyrazol-4-yl)-1,3,4-oxadiazol-2-yl)(4-(isoquinolin-3-yl)-6,7-dihydro-1H-imidazo[4,5-c]pyridin-5(4H)-yl)methanone], the AC50 was < 500 nM.

Turning to `Cc1nn(C)cc1-c1nnc(C(=O)N2CCc3[nH]cnc3[C@H]2c2cc3ccccc3cn2)o1` [Example 450, (R)-(5-(1,3-dimethyl-1H-pyrazol-4-yl)-1,3,4-oxadiazol-2-yl)(4-(isoquinolin-3-yl)-6,7-dihydro-1H-imidazo[4,5-c]pyridin-5(4H)-yl)methanone], the half-maximal activity concentration (AC50) is < 500 nM.

Regarding `O=C(c1nnc(-c2cc[nH]n2)o1)N1CCc2[nH]cnc2[C@H]1c1cc2ccccc2cn1` [Example 451, (R)-(5-(1H-pyrazol-3-yl)-1,3,4-oxadiazol-2-yl)(4-(isoquinolin-3-yl)-6,7-dihydro-1H-imidazo[4,5-c]pyridin-5(4H)-yl)methanone], the AC50 is < 500 nM.

Take `O=C(c1cnn2cc(C3CC3)ccc12)N1CCc2[nH]cnc2[C@H]1c1cc2ccccc2cn1` [Example 452, (R)-(6-cyclopropylpyrazolo[1,5-a]pyridin-3-yl)(4-(isoquinolin-3-yl)-6,7-dihydro-1H-imidazo[4,5-c]pyridin-5(4H)-yl)methanone]: the AC50 was < 500 nM.

In the case of `COCCc1ccc2c(C(=O)N3CCc4[nH]cnc4[C@H]3c3cc4ccccc4cn3)cnn2c1` [Example 453, (R)-(4-(isoquinolin-3-yl)-6,7-dihydro-1H-imidazo[4,5-c]pyridin-5(4H)-yl)(6-(2-methoxyethyl)pyrazolo[1,5-a]pyridin-3-yl)methanone], the AC50 is < 500 nM.

Regarding `O=C(c1nnc(-c2cn[nH]c2)o1)N1CCc2[nH]cnc2[C@H]1c1cc2ccccc2cn1` [Example 454, (R)-(5-(1H-pyrazol-4-yl)-1,3,4-oxadiazol-2-yl)(4-(isoquinolin-3-yl)-6,7-dihydro-1H-imidazo[4,5-c]pyridin-5(4H)-yl)methanone], the half-maximal activity concentration (AC50) fell in the range of 500 to 1000 nM.

In the case of `Cc1cnn(C)c1-c1nnc(C(=O)N2CCc3[nH]cnc3[C@H]2c2cc3ccccc3cn2)o1` [Example 455, (R)-(5-(1,4-dimethyl-1H-pyrazol-5-yl)-1,3,4-oxadiazol-2-yl)(4-(isoquinolin-3-yl)-6,7-dihydro-1H-imidazo[4,5-c]pyridin-5(4H)-yl)methanone], the AC50 is < 500 nM.

Take `Cn1cc(-c2ccc3c(C(=O)N4CCc5[nH]cnc5[C@H]4c4cc5ccccc5cn4)cnn3c2)cn1` [Example 456, (R)-(4-(isoquinolin-3-yl)-6,7-dihydro-1H-imidazo[4,5-c]pyridin-5(4H)-yl)(6-(1-methyl-1H-pyrazol-4-yl)pyrazolo[1,5-a]pyridin-3-yl)methanone]: the AC50 is < 500 nM.

For the compound `CN1CCN(c2ccc3c(C(=O)N4CCc5[nH]cnc5[C@H]4c4cc5ccccc5cn4)cnn3c2)CC1` [Example 457, (R)-(4-(isoquinolin-3-yl)-6,7-dihydro-1H-imidazo[4,5-c]pyridin-5(4H)-yl)(6-(4-methylpiperazin-1-yl)pyrazolo[1,5-a]pyridin-3-yl)methanone], the AC50 was < 500 nM.

Regarding `O=C(c1cnn2cc(N3CCOCC3)ccc12)N1CCc2[nH]cnc2[C@H]1c1cc2ccccc2cn1` [Example 458, (R)-(4-(isoquinolin-3-yl)-6,7-dihydro-1H-imidazo[4,5-c]pyridin-5(4H)-yl)(6-morpholinopyrazolo[1,5-a]pyridin-3-yl)methanone], the AC50 was < 500 nM.

Turning to `O=C(c1cnn2cc(Br)c(Cl)cc12)N1CCc2[nH]cnc2[C@H]1c1cc2ccccc2cn1` [Example 459, (R)-(6-bromo-5-chloropyrazolo[1,5-a]pyridin-3-yl)(4-(isoquinolin-3-yl)-6,7-dihydro-1H-imidazo[4,5-c]pyridin-5(4H)-yl)methanone], the AC50 was < 500 nM.

Take `COc1ccc2c(C(=O)N3CCc4[nH]cnc4[C@H]3c3cc4ccccc4cn3)cnn2c1` [Example 460, (R)-(4-(isoquinolin-3-yl)-6,7-dihydro-1H-imidazo[4,5-c]pyridin-5(4H)-yl)(6-methoxypyrazolo[1,5-a]pyridin-3-yl)methanone]: the concentration at half-maximal activity (AC50) is < 500 nM.

On to `O=C(c1cnn2cc(-c3ccccn3)ccc12)N1CCc2[nH]cnc2[C@H]1c1cc2ccccc2cn1` [Example 461, (R)-(4-(isoquinolin-3-yl)-6,7-dihydro-1H-imidazo[4,5-c]pyridin-5(4H)-yl)(6-(pyridin-2-yl)pyrazolo[1,5-a]pyridin-3-yl)methanone], for which the AC50 was < 500 nM.

With `O=C(c1cnn2ccc(Cl)cc12)N1CCc2[nH]cnc2[C@H]1c1cc2ccccc2cn1` [Example 462, (R)-(5-chloropyrazolo[1,5-a]pyridin-3-yl)(4-(isoquinolin-3-yl)-6,7-dihydro-1H-imidazo[4,5-c]pyridin-5(4H)-yl)methanone], the AC50 was < 500 nM.

Consider `O=C(c1cnn2cc(N3CCOCC3)c(Cl)cc12)N1CCc2[nH]cnc2[C@H]1c1cc2ccccc2cn1` [Example 463, (R)-(5-chloro-6-morpholinopyrazolo[1,5-a]pyridin-3-yl)(4-(isoquinolin-3-yl)-6,7-dihydro-1H-imidazo[4,5-c]pyridin-5(4H)-yl)methanone], for which the concentration at half-maximal activity (AC50) was < 500 nM.

Take `CN1CCN(c2cn3ncc(C(=O)N4CCc5[nH]cnc5[C@H]4c4cc5ccccc5cn4)c3cc2Cl)CC1` [Example 464, (R)-(5-chloro-6-(4-methylpiperazin-1-yl)pyrazolo[1,5-a]pyridin-3-yl)(4-(isoquinolin-3-yl)-6,7-dihydro-1H-imidazo[4,5-c]pyridin-5(4H)-yl)methanone]: the AC50 is < 500 nM.

Turning to `C[C@@H](O)c1nnc(C(=O)N2CCc3[nH]cnc3[C@H]2c2cc3ccccc3cn2)o1` [Example 465, (5-((R)-1-hydroxyethyl)-1,3,4-oxadiazol-2-yl)((R)-4-(isoquinolin-3-yl)-6,7-dihydro-1H-imidazo[4,5-c]pyridin-5(4H)-yl)methanone], the AC50 is 500 to 1000 nM.

As to `Cc1ccc2c(C(=O)N3CCc4[nH]cnc4[C@H]3c3cc4ccccc4cn3)cnn2c1` [Example 466, (R)-(4-(isoquinolin-3-yl)-6,7-dihydro-1H-imidazo[4,5-c]pyridin-5(4H)-yl)(6-methylpyrazolo[1,5-a]pyridin-3-yl)methanone], the AC50 was < 500 nM.
